Measured values reported in patent US20020173538A1, “Method for sensitizing cancer cells to cancer therapies with a mevalonate-reducing compound” (priority 2000, published 2002).
Read-outs that look alike come from different tables or passages of the source. Marks after values point to notes of the source that are not given here.

How the values were obtained:
Hep G2 cells = experiment: MTT cell viability assay, Hep G2 cells (serum-free DMEM); details: Homo sapiens
Text: (§1) Human hepatoma cell lines Hep G2 and Hep 3 were chosen as the in vitro models of hepatocytes and hepatoma, respectively.

Hep 3B cells [1] = experiment: MTT cell viability assay, Hep 3B cells (serum-free DMEM); details: for viability at 5 µM / viability at 10 µM / viability at 25 µM / viability at 50 µM / IC50: Homo sapiens, Hep3B
Text: as §1

in vitro = details: human, Cell viability
Text: as §1

Hep 3B cells [2] = details: human, 48 h
Text: as §1

Hep 3B cells [3] = experiment: Cell cycle determination by flow cytometry, Hep 3B; type: cell-based, human; details: cell line not given

O=C(/C=C/c1ccc(O)c(O)c1)OCCc1ccccc1 [CAPE, caffeic acid phenethyl ester]
IC50 (Hep G2 cells; HepG2, 48 h, read-out: IC50 (cell viability), 48 hr): 9.5 µM | IC50 (Hep G2 cells; HepG2, 72 h, read-out: IC50 (cell viability), 72 hr): 4.5 µM | Ratio, inhibition (%) Hep 3B/inhibition (%) Hep G2 (Hep 3B cells [1]; CAPE 5 μM alone, 72 hr, Table 23): 0.4** | Ratio, inhibition (%) Hep 3B/inhibition (%) Hep G2 (Hep 3B cells [1]; CAPE 5 μM, 48 hr): 0.4*** | Ratio, inhibition (%) Hep 3B/inhibition (%) Hep G2 (Hep 3B cells [1]; CAPE 5 μM, 72 hr): 0.5*** | Ratio, inhibition (%) Hep 3B/inhibition (%) Hep G2 (Hep 3B cells [1]; CAPE 10 μM alone, 72 hr, Table 23): 0.6*** | Ratio, inhibition (%) Hep 3B/inhibition (%) Hep G2 (Hep 3B cells [1]; CAPE 10 μM, 48 hr): 0.5*** | Ratio, inhibition (%) Hep 3B/inhibition (%) Hep G2 (Hep 3B cells [1]; CAPE 10 μM, 72 hr): 0.7** | Ratio, inhibition (%) Hep 3B/inhibition (%) Hep G2 (Hep 3B cells [1]; CAPE 25 μM alone, 72 hr, Table 23): 0.9 | Ratio, inhibition (%) Hep 3B/inhibition (%) Hep G2 (Hep 3B cells [1]; CAPE 25 μM, 48 hr): 1.1 | Ratio, inhibition (%) Hep 3B/inhibition (%) Hep G2 (Hep 3B cells [1]; CAPE 25 μM, 72 hr): 1.0 | Ratio, inhibition (%) Hep 3B/inhibition (%) Hep G2 (Hep 3B cells [1]; CAPE 50 μM, 48 hr): 0.9** | Ratio, inhibition (%) Hep 3B/inhibition (%) Hep G2 (Hep 3B cells [1]; CAPE 50 μM, 72 hr): 1.0 | viability at 5 µM (Hep 3B cells [1]; 48 h, read-out: Cell viability, CAPE 5 μM, 48 hr): 87.1 ± 1.8% | viability at 10 µM (Hep 3B cells [1]; 48 h, read-out: Cell viability, CAPE 10 μM, 48 hr): 73.2 ± 1.2% | viability at 25 µM (Hep 3B cells [1]; 48 h, read-out: Cell viability, CAPE 25 μM, 48 hr): 38.2 ± 4.7% | viability at 50 µM (Hep 3B cells [1]; 48 h, read-out: Cell viability, CAPE 50 μM, 48 hr): 20.5 ± 4.6% | IC50 (Hep 3B cells [1]; 48 h, read-out: IC50 (cell viability), 48 hr): 19.9 µM | viability at 5 µM (Hep 3B cells [1]; 72 h, read-out: Cell viability, CAPE 5 μM alone, 72 hr, Table 23): 74.2 ± 6.8% | viability at 5 µM (Hep 3B cells [1]; 72 h, read-out: Cell viability, CAPE 5 μM, 72 hr): 70.8 ± 2.6% | viability at 10 µM (Hep 3B cells [1]; 72 h, read-out: Cell viability, CAPE 10 μM alone, 72 hr, Table 23): 53.5 ± 5% | viability at 10 µM (Hep 3B cells [1]; 72 h, read-out: Cell viability, CAPE 10 μM, 72 hr): 47.6 ± 1.9% | viability at 25 µM (Hep 3B cells [1]; 72 h, read-out: Cell viability, CAPE 25 μM alone, 72 hr, Table 23): 22.3 ± 5.7% | viability at 25 µM (Hep 3B cells [1]; 72 h, read-out: Cell viability, CAPE 25 μM, 72 hr): 12.5 ± 4.8% | viability at 50 µM (Hep 3B cells [1]; 72 h, read-out: Cell viability, CAPE 50 μM, 72 hr): 0% | IC50 (Hep 3B cells [1]; 72 h, read-out: IC50 (cell viability), 72 hr): 9.5 µM | Ratio, inhibition (%) Hep 3B/inhibition (%) Hep G2 (Hep 3B cells [1]; no lovastatin 48 hr, then CAPE 5 μM 48 hr): 0.4*** | Ratio, inhibition (%) Hep 3B/inhibition (%) Hep G2 (Hep 3B cells [1]; no lovastatin 48 hr, then CAPE 10 μM 48 hr): 0.4*** | viability at 48 h, 5 μM (in vitro): 70.2 ± 1.7% | viability at 48 h, 10 μM (in vitro): 47.7 ± 5.6% | viability at 48 hr, 5 μM (in vitro): 71.1 ± 1.8% | viability at 48 hr, 10 μM (in vitro): 47.4 ± 3% | viability at 48 hr, 25 μM (in vitro): 42.6 ± 1.3% | viability at 48 hr, 50 μM (in vitro): 7.5 ± 0.6% | viability at 72 h, 5 μM (in vitro): 36.8 ± 6.7% | viability at 72 h, 10 μM (in vitro): 20 ± 4% | viability at 72 h, 25 μM (in vitro): 13.2 ± 1.1% | viability at 72 hr, 5 μM (in vitro): 42.3 ± 2.5% | viability at 72 hr, 10 μM (in vitro): 21.2 ± 5% | viability at 72 hr, 25 μM (in vitro): 12.5 ± 3% | viability at 72 hr, 50 μM (in vitro): 1.9 ± 1.8% | Cell viability (Hep 3B cells [2]; 5 μM): 88.8 ± 1.6^b % of control | Cell viability (Hep 3B cells [2]; 10 μM): 77.4 ± 1.8^c % of control | cell cycle arrest stage (Hep 3B cells [3]): G1 arrest
